Data: patent publication US9341619B2, “Hyposialylation disorders” (THE UNITED STATES OF AMERICA, as representated by the …, priority 2013, dated 2016)

Test system: sialylation of core 1 O-linked glycans of plasma glycoproteins (T/ST ratio)
Test: Plasma T/ST ratio (T-antigen to monosialylated ST-antigen) by LC-MS/MS in treated GNE myopathy patients
Format: in vivo, human
Procedure: The quantification of the T/ST ratio was carried out using the O-glycan quantification methods disclosed in Liu et al. Mol Genet Metab 106, 442-454 (2012). Briefly, O-linked glycans from human serum or plasma total glycoproteins were released by sodium hydroxide with sodium borohydrate and desalted by ion-exchange column and then permethylated before the quantity of T-antigen and monosialyl ST-antigen was measured using LC-MS/MS method. Plasma samples from 40 normal controls were used to establish the normal range for the T/ST ratio at <0.056. A cut-off of 0.06 was used to diagnose hyposialylation of O-linked protein glycosylation in human plasma or serum.
O-glycans were released from plasma glycoproteins and prepared for analysis essentially as described by Carlson (J Biol Chem 243: 616-626, 1968; Liu et al. Mol Genet Metab 106, 442-454 (2012)), with modifications as described. An internal standard (1250 pmol raffinose in 5 μL) was added to 10 μL of plasma and 65 μl water for a final volume of 100 μL. Next, 100 μL of freshly prepared 2M […] in 0.1M sodium hydroxide was added to denature the serum proteins and release the O-glycans; the mixture was incubated at 45° C. for 16 hours to ensure complete reaction. The reaction was neutralized by drop wise addition of 1.6 mL of a 0.25M acetic acid-methanol solution, and the O-glycans were extracted in methanol. […]

SMILES	T/ST ratio after sialic acid treatment (one GNE myopathy patient (NH00016), sialic acid received one month before the test, cut-off 0.06)	T/ST ratio range under ManNAc (one GNE myopathy patient (SIA79) self-administering off-label ManNAc, abnormal range 0.06 or higher)
CC(=O)N[C@@H]1C(O)C[C@](O)(C(=O)O)OC1[C@H](O)[C@H](O)CO (stereo in doubt) [sialic acid, N-acetylneuraminic acid]	0.05	–
CC(=O)N[C@H]1[C@@H](O)[C@H](O)[C@@H](CO)O[C@H]1O [ManNAc, N-acetyl-D-mannosamine]	–	normal range
